2 compounds from patent publication US20230002389A1, “ADENINE ANALOGS, PRODRUGS, DERIVATIVES, COMPOSITIONS AND USES THEREOF” (priority 2021, published 2023) can be followed below.

Where “and” joins values, the source holds several entries; their conditions need not be identical. Equal values may be shown once. Read-outs that look alike come from different tables or passages of the source.

A short description of data set [1]: Pharmacokinetic analysis of T1-1 as a prodrug of MRS5474: plasma PK in mice after i.v. and p.o. dosing. The note with it: CD-1 mice; for MRT inf: read-out: MRTInf_obs. The format is in vivo, Male CD-1 mice. Set-up: AUClast/D: unit not given here. As to the method: Pharmacokinetic Analysis of Compound T1-1 for Determination Utility as a Prodrug of MRS5474:
The dosing formulation (for i.v.) of T1-1 for mouse PK studies were prepared as 0.27 mg/mL solution of 10% DMSO+50% PEG400+40% WATER (Dissolved 1.19 mg of T1-1 in 0.441 mL of DMSO with vortexing and sonication, then added 2.204 mL of PEG400 and 1.763 mL of H2O with vortexing to obtain a solution). The dosing formulation (for p.o.) of T1-1 for mouse PK studies were prepared 2.71 mg/mL solution of 10% DMSO+50% PEG400+40% WATER (Dissolved 10.17 mg of in 0.375 mL of DMSO with vortexing and sonication, then added 1.876 mL […] of PEG400 and 1.501 mL of H2O with vortexing to obtain a solution.)
Animals: Male CD-1 mice (6-8 weeks of age), weighing 20-22 g; all animals were allowed to acclimate to this environment for one week prior to experimental manipulations.
Study Design: Study design The CD1 mice were given a single dose of T1-1 by bodyweight via intravenous (i.v.), or via oral gavage (p.o) administration. The blood and brain tissue samples were collected at intervals (h) of 0, 0.5, 1, 2, 4, 8, and 24. (n=3, each time point).
Plasma Sample Preparation: Approximately 0.3 mL blood will be collected at each time point. After collecting the blood at each time point, add 250 to 300 μL of the blood sample to Eppendorf tube containing EDTA solution+10 μL of inhibitor stock and vortexed for 15 minutes and then centrifugation at 4000 g for 5 minutes in a 4° C. centrifuge to obtain plasma.
The desired serial concentrations of working solutions were achieved by diluting a stock solution of the analyte with 50% acetonitiile in water solution. 5 μL of working solutions (5, 10, 20, 50, 100, 500, 1000, 5000, 10000 ng/mL) were added to 50 μL of the blank CD1 Mouse plasma to achieve calibration standards of 0.5-1000 ng/mL (0.5, 1, 2, 5, 10, 50, 100, 500, 1000 ng/mL) in a total volume of 55 μL. Five quality control samples at 1 ng/mL, 2 ng/mL, 5 ng/mL, 50 ng/mL, and 800 ng/mL for plasma were prepared independently of those used for the calibration curves. These QC samples were prepared on the day of analysis in the same way as calibration standards. 55 μL standards, 55 μL QC samples and 55 unknown samples (50 μL plasma with 5 μL blank solution) were added to 200 μL of acetonitrile containing IS mixture for precipitating protein respectively. Then the samples were vortexed for 30 s. After centrifugation at 4 degree Celsius, 3900 rpm for 15 min, the supernatant was diluted 3 times with water. 1 μL of diluted supernatant was injected into the LC/MS/MS system for quantitative analysis using (Shimadzu-DGU-20A5 integrated with AB AP15500 LCMS/MS instrument) with to determine plasma concentrations of T1-1 and the metabolite (parent compound) MRA5474. The data were analyzed for test article T1-1 and the metabolite (parent compound) MRA5474 for PK profile.
The mobile phase consisted of acetonitrile and water mixtures, solution A: 5% acetonitrile (0.1% formic acid) and solution B: 95% acetonitrile (0.1% formic acid) with gradient elution from 90 to 10% solution A over 1.71 min. The flow rate was 0.7 mL/min. YMC Triart C18 5 μm (50×2.1 mm) column was used for the separation of the sample components.
Results: Summary of IV and PO of Plasma Pharmacokinetic Parameters

A further data set deals with Homer 1a. Put plainly: Quantitative real-time PCR analysis of brain tissue after oral gavage of T1-1. The settings on record: PO(2 h); for % Vehicle Mean: group mean of 3 mice; for % Vehicle Average / % Vehicle n = 1 / % Vehicle n = 2 / Relative mRNA expression (2^(−ΔCt)) Average / Relative mRNA expression(2^(−ΔCt)) n = 1 / Relative mRNA expression(2^(−ΔCt)) n = 2: individual mice M31-M33. The format is in vivo, Male CD1 mice. As to the method: Quantitative Real-Time PCR Analysis
Male CD1 mice were administered vehicle and test compound (T1-1) by oral gavage. After 2 hours, the were decapitated, and their brain samples were collected. Total RNA from the brain tissue were isolated using […], RNA integrity was confirmed, and the concentration was quantified by measuring the optical density. Reverse transcription was performed (Invitrogen) for cDNA synthesis according to the manufacturer's instructions. Real-time qPCR was performed on Real-Time PCR System using SYBR Green. The amplification reactions were performed as per the supplier's protocol.
(Quantitative PCR measures a nucleic acid by following its amplification.)

Setting [2] is: IV(plasma), T1-1 dosed 1.35 mg/kg.
Setting [3] is: IV(plasma), T1-1 dosed 1.35 mg/kg, analyte = label.
Setting [4] is: PO(plasma), T1-1 dosed 13.55 mg/kg.
The mark [5] stands for this setting: male, mouse, IV(plasma), T1-1 dosed 1.35 mg/kg, analyte = label.
Setting [6] is: male, mouse, IV(plasma), T1-1 dosed 1.35 mg/kg, analyte = label (T1-1 or metabolite MRS5474).
[7] abbreviates: male, mouse, PO(plasma), T1-1 dosed 13.55 mg/kg, analyte = label.

One may read the AUC(0-inf) as total exposure, with the tail of the curve extrapolated. As a reminder, the AUC(0-t) is exposure summed from dosing to a finite time, without extrapolation to infinity. What is called half-life is the time in which the quantity being followed falls by half. What is called Cmax is the maximum level reached in the sampled fluid or tissue. Usually Tmax stands for the time from dosing to the highest level. For the compound `O=C(NCN(c1nc(Cl)nc2c1ncn2[C@H]1[C@H](O)[C@H](O)[C@@H]2C[C@@H]21)C(C1CC1)C1CC1)c1ccccc1` [Compound T1-1, N-(((2-chloro-9-((1S,2R,3S,4R,5R)-3,4-dihydroxybicyclo [3.1.0]hexan-2-yl)-9H-purin-6-yl) (dicyclopropylmethyl)amino)methyl) benzamide], in data set [1] (setting [2]), the AUClast/D is recorded as 289.77 and the Vss_obs came to 1.57 L/kg. Besides, in data set [1] (setting [3]), the “AUC_% Extrap_obs” value stood at 0.93% and the Cl_obs turned out to be 56.98 mL/min/kg. In data set [1] (setting [4]), the AUClast/D is listed as 34.47 and the F turned out to be 11.90%. Moreover, in data set [1] (setting [5]), the AUC(0-inf) was 395 ng·h/mL, the AUC(0-t) was determined as 391 ng·h/mL, the C0 came out at 613 ng/mL and the MRT inf was determined as 0.46 h. The half-life in data set [1] (setting [6]) was 17.4 min. Further, in data set [1] (setting [7]), the AUC(0-t) amounted to 467 ng·h/mL, the Cmax was 132 ng/mL and the Tmax was 0.5 h. Further, in the data set on Homer 1a (Homer 1a mRNA vs Actin), the “% Vehicle Mean” value is given as 112.74%; the “% Vehicle Average” value was 131.98% and 104.88% and 101.37%; the “% Vehicle n = 1” value is 123.98% and 96.37% and 100.64%; the “% Vehicle n = 2” value was 139.98% and 113.39% and 102.10%. In the data set with Homer 1a (Homer 1a mRNA vs GAPDH), the “% Vehicle Mean” value is 66.54%; the “% Vehicle Average” value is 75.27% and 51.17% and 73.18%; the “% Vehicle n = 1” value is 72.27% and 49.10% and 72.10%; the “% Vehicle n = 2” value is 78.27% and 53.24% and 74.26%. Further, in the data set with Homer 1a (Homer 1a vs Actin), the “Relative mRNA expression (2^(−ΔCt)) Average” value is 0.51 and 0.41 and 0.40; the “Relative mRNA expression(2^(−ΔCt)) n = 1” value was 0.48 and 0.38 and 0.39; the “Relative mRNA expression(2^(−ΔCt)) n = 2” value is 0.55 and 0.44 and 0.40. In the data set with Homer 1a (Homer 1a vs GAPDH), the “Relative mRNA expression (2^(−ΔCt)) Average” value was 0.1187 and 0.0807 and 0.1154; the “Relative mRNA expression(2^(−ΔCt)) n = 1” value was 0.1140 and 0.0774 and 0.1137; the “Relative mRNA expression(2^(−ΔCt)) n = 2” value is 0.1234 and 0.0840 and 0.1171.
Regarding `O[C@@H]1[C@H](O)[C@@H]2C[C@@H]2[C@H]1n1cnc2c(NC(C3CC3)C3CC3)nc(Cl)nc21` [MRS5474, (1R,2R,3S,4R,5S)-4-(2-chloro-6-((dicyclopropylmethyl)amino)-9H-purin-9-yl) bicyclo [3.1.0] hexane-2,3-diol, reference compound], the “AUC_% Extrap_obs” value in data set [1] (setting [3]) is on record as 2.62%. Also, the “AUC_% Extrap_obs” value in data set [1] (PO(plasma), T1-1 dosed 13.55 mg/kg, analyte = label) is on record as 0.08%. Also, in data set [1] (setting [5]), the AUC(0-inf) turned out to be 321 ng·h/mL, the AUC(0-t) was 313 ng·h/mL, the Cmax worked out at 127 ng/mL and the Tmax amounted to 1 h. Besides, the MRT inf in data set [1] (setting [5]) turned out to be 2.32 h. Also, the half-life in data set [1] (setting [6]) was 93 min. In addition, in data set [1] (setting [7]), the AUC(0-inf) stood at 6990 ng·h/mL, the AUC(0-t) was found to be 6990 ng·h/mL, the Cmax was determined as 522 ng/mL and the Tmax was found to be 1 h. In data set [1] (setting [7]), the half-life is 139 min and the MRT inf worked out at 6.36 h.
